The values that follow come from a flash point compilation (Sun et al. 2020).

Assay in series [1]: not given
The source holds these as a separate data set.

Assay in series [2]: not given
The source holds these as a separate data set.

As to `ClCC(Cl)(Cl)Cl` [1,1,1,2-tetrachloroethane], the flash point worked out at 47 °C.

Consider `C=C(Cl)Cl` [1,1-dichloroethylene], for which the flash point was -25 °C.

As to `Cc1cccc(C)c1C` [1,2,3-trimethylbenzene], the flash point in series [1] was 44.00 °C; in series [2], 51 °C.

For `CCC(O)CO` (centres undefined) [1,2-butanediol], the flash point worked out at 93 °C.

Compound `Clc1ccccc1Cl` [1,2-dichlorobenzene] gave a flash point of 67 °C.

As to `CCC(Cl)CCl` (centres undefined) [1,2-dichlorobutane], the flash point was 26 °C.

On to `CC1CCCCC1C` (centres undefined) [1,2-dimethylcyclohexane], for which the flash point amounted to 15 °C.

As for `SCCS` [1,2-ethanedithiol], the flash point is 50 °C.

In turn, `CC(N)CN` (centres undefined) [1,2-propanediamine] returned a flash point of 33 °C.

Regarding `Cc1cc(C)cc(C)c1` [1,3,5-trimethylbenzene], the flash point worked out at 50.00 °C in series [1] and 44 °C in series [2].

With `NCCCN` [1,3-propanediamine], the flash point was found to be 48 °C.

The compound `OCCCO` [1,3-propanediol] had a flash point of 131 °C.

`OCCCCO` [1,4-butanediol]: the flash point was found to be 135 °C.

The compound `N#CCCCCC#N` [1,4-dicyanobutane] showed a flash point of 159 °C.

Turning to `CC1CCC(C)CC1` (centres undefined) [1,4-dimethylcyclohexane], the flash point amounted to 10 °C.

For `C=CCCC=C` [1,5-hexadiene], the flash point is -27 °C.

The compound `OCCCCCO` [1,5-pentanediol] had a flash point of 136 °C.

As for `SCCCCCS` [1,5-pentanedithiol], the flash point came to 95 °C.

Regarding `CCCCCBr` [1-bromopentane], the flash point turned out to be 31 °C.

In the case of `CCc1ccc(Cl)cc1` [1-chloro-4-ethylbenzene], the flash point came out at 64 °C.

The compound `CCCCCCCCl` [1-chloroheptane] registered a flash point of 41 °C.

For `CC(=O)C1CC1` [1-cyclopropylethanone], the flash point is 13 °C.

The compound `CCCCCCCF` [1-fluoroheptane] returned a flash point of 13 °C.

As for `CCCCCCI` [1-iodohexane], the flash point worked out at 67 °C.

As for `CCCCOC` [1-methoxybutane], the flash point was -10 °C.

`CN1CCCC1=O` [1-methyl-2-pyrrolidinone] returned a flash point of 86 °C.

As to `Cc1cccc2ccccc12` [1-methylnaphthalene], the flash point stood at 82 °C.

With `Cn1cccc1` [1-methylpyrrole], the flash point was 15 °C.

For the compound `CN1CCCC1` [1-methylpyrrolidine], the flash point was -18 °C.

The compound `CCCCCCCCS` [1-octanethiol] showed a flash point of 69 °C.

`C=CCCCCCC` [1-octene] registered a flash point of 21 °C.

With `CC(C)(Cl)Cl` [2,2-dichloropropane], the flash point is -5 °C.

In turn, `CC(C)(C)C#N` [2,2-dimethylpropanenitrile] returned a flash point of 4 °C.

With `Cc1cc(C)nc(C)c1` [2,4,6-trimethylpyridine], the flash point was 57 °C.

For the compound `CC(=O)CC(C)=O` [2,4-pentanedione], the flash point was 34 °C.

As for `COC1C=CC(OC)O1` (centres undefined) [2,5-dimethoxy-2,5-dihydrofuran], the flash point turned out to be 51 °C.

Compound `CC(O)CCC(C)O` (centres undefined) [2,5-hexanediol] had a flash point of 101 °C.

Take `C1=CC2C=CC1C2` [2,5-norbornadiene]: the flash point was -11 °C.

Consider `CNCCO` [2-(methylamino)ethanol], for which the flash point in series [1] was 74.00 °C; in series [2] it was 72 °C.

The compound `CC(C)(N)CO` [2-amino-2-methyl-1-propanol] had a flash point of 67 °C.

The compound `COC(CBr)OC` [2-bromo-1,1-dimethoxyethane] yielded a flash point of 53 °C.

On to `CC=CC#N` [2-butenenitrile], for which the flash point is 20 °C.

Consider `CC(C)(C)Cl` [2-chloro-2-methylpropane], for which the flash point was -27 °C.

Turning to `O=C1C=CCCC1` [2-cyclohexen-1-one], the flash point was found to be 34 °C.

With `CN(C)CCO` [2-dimethylaminoethanol], the flash point is 40 °C.

For the compound `CCCCC(C=O)CC` (centres undefined) [2-ethylhexanal], the flash point worked out at 46 °C.

`C=CC(=O)OCC(CC)CCCC` (centres undefined) [2-ethylhexyl acrylate]: the flash point came out at 86 °C.

Turning to `CCC1=NCCO1` [2-ethyloxazoline], the flash point was determined as 29 °C.

The compound `CCC(C)I` (centres undefined) [2-iodobutane] had a flash point of 23 °C.

`CC(C)OCCO` [2-isopropoxyethanol] registered a flash point of 43 °C.

As to `CC(C)C=O` [2-methyl-1-propanal], the flash point was -25 °C.

Regarding `CCC(C)(C)O` [2-methyl-2-butanol], the flash point was 21 °C.

Compound `CNCCO` [2-methylaminoethanol] showed a flash point of 71 °C.

As to `CC1CCCCC1O` (centres undefined) [2-methylcyclohexanol], the flash point was determined as 58 °C.

For the compound `Cc1ccc2ccccc2c1` [2-methylnaphthalene], the flash point turned out to be 97 °C.

Turning to `C1CCCCC1` [cyclohexane], the figures for the flash point in series [1] and in series [2] were -20.00 °C and -18 °C, respectively.

As to `CCCCCCCCCCCC` [dodecane], the flash point in series [1] was 74.00 °C; in series [2], 71 °C.

Consider `CCCCCC` [hexane], for which the flash point in series [1] was -23.00 °C; in series [2], -26 °C.

In the case of `O=[N+]([O-])C1CCCCC1` [nitrocyclohexane], the flash point in series [2] came to 81 °C.

For `O=[N+]([O-])C1CCCC1` [nitrocyclopentane], in series [2], the flash point was found to be 67 °C.

`CC[N+](=O)[O-]` [nitroethane] registered a flash point in series [2] of 28 °C.

The compound `CCCCCCCCC#N` [nonanenitrile] gave a flash point in series [2] of 82 °C.

`CCCCCCCCCOC(C)=O` [nonylacetate] came in with a flash point in series [2] of 91 °C.

In turn, `CCCCCCCCCN` [nonylamine] returned a flash point in series [2] of 74 °C.

In the case of `CCCCCCCCCOC=O` [nonylformate], the flash point in series [2] came to 88 °C.

Consider `CCc1ccccc1CC` [o-diethylbenzene], for which, in series [2], the flash point was found to be 55 °C.

As to `CCCCCCCC#N` [octanenitrile], in series [2], the flash point stood at 74 °C.

The compound `CCc1ccc(C)cc1` [p-ethyltoluene] came in with a flash point in series [2] of 36 °C.

`Cc1ccc(C)cc1` [p-xylene] had a flash point in series [2] of 25 °C.

With `CCCCC=O` [pentanal], the flash point in series [2] amounted to 8 °C.

In series [2], `CCCCC#N` [pentanenitrile] displayed a flash point of 32 °C.

As for `CCCCC(=O)OC(=O)CCCC` [pentanoicanhydride], the flash point in series [2] stood at 101 °C.

Take `CCCCCOC(C)=O` [pentylacetate]: the flash point in series [2] amounted to 39 °C.

Consider `CCCCCOC(=O)c1ccccc1` [pentylbenzoate], for which, in series [2], the flash point was 120 °C.

On to `CCCCCOC(=O)CC` [pentylpropanoate], for which the flash point in series [2] was 53 °C.

On to `CC(=O)C(C)(C)C` [pinacolone], for which the flash point in series [2] was found to be 5 °C.

Turning to `CC(C)(C)C(=O)OC(=O)C(C)(C)C` [pivalicanhydride], the flash point in series [2] is 63 °C.

Take `CCC=O` [propanal]: the flash point in series [2] was -27 °C.

As to `CCCOC(=O)C(C)C` [propyl2-methylpropanoate], the flash point in series [2] is 30 °C.

As to `CCCOC(=O)CCC` [propylbutanoate], the flash point in series [2] came to 35 °C.

Compound `C=C(C)C(=O)OCCC` [propylmethacrylate] came in with a flash point in series [2] of 35 °C.

Compound `CCCOC(=O)CC` [propylpropanoate] came in with a flash point in series [2] of 22 °C.

As for `C=COCCC` [propylvinylether], in series [2], the flash point was -22 °C.

Take `c1ccncc1` [pyridine]: the flash point in series [2] was 17 °C.

Turning to `CCC(C)N` (centres undefined) [sec-butylamine], in series [2], the flash point is -19 °C.

`CC(=O)OC(C)(C)C` [tert-butylacetate]: in series [2], the flash point amounted to 4 °C.

In series [2], `CC(C)(C)O` [tert-butylalcohol] showed a flash point of 11 °C.

Regarding `CC(C)(C)N` [tert-butylamine], the flash point in series [2] is -38 °C.

Consider `CC(C)(C)c1ccccc1` [tert-butylbenzene], for which the flash point in series [2] came to 44 °C.

For `CC(C)(C)OC=O` [tert-butylformate], the flash point in series [2] is -9 °C.

For `CSC(C)(C)C` [tert-butylmethylsulfide], the flash point in series [2] was -3 °C.

Turning to `C=COC(C)(C)C` [tert-butylvinylether], the flash point in series [2] is -17 °C.

`C1CCOC1` [tetrahydrofuran]: the flash point in series [2] was -21 °C.

Consider `Cc1ccccc1` [toluene], for which the flash point in series [1] came to 4.00 °C; in series [2] it was 7 °C.

`C[C@H]1CC[C@H](C)CC1` [trans-1,4-dimethylcyclohexane] yielded a flash point in series [2] of 6 °C.

As for `C/C=C/CCCCC` [trans-2-octene], the flash point in series [2] worked out at 14 °C.

For `C/C=C/CC` [trans-2-pentene], the flash point in series [2] was -45 °C.

For `CC/C=C/CCC` [trans-3-heptene], the flash point in series [2] was -7 °C.

For `C[C@H]1CC[C@H](O)CC1` [trans-4-methylcyclohexanol], the flash point in series [2] came out at 70 °C.

For the compound `CCC/C=C/CCC` [trans-4-octene], the flash point in series [2] amounted to 8 °C.

In series [2], `C1CC[C@H]2CCCC[C@@H]2C1` [trans-decalin] displayed a flash point of 53 °C.

The compound `CCOC(OCC)OCC` [triethoxymethane] displayed a flash point in series [2] of 35 °C.

In series [2], `CCCN(CCC)CCC` [tripropylamine] displayed a flash point of 35 °C.

For `CCCCCCCCCCC=O` [undecanal], in series [2], the flash point was determined as 95 °C.

With `C=COC(=O)CCC` [vinylbutanoate], the flash point in series [2] is 20 °C.

Compound `C=CC1CCCCC1` [vinylcyclohexane] displayed a flash point in series [2] of 21 °C.

With `C=COC(=O)CC` [vinylpropanoate], in series [2], the flash point came out at 6 °C.
